Source: patent US9116112B2, “UV protective skin treatment compositions and screening methods” (JR Chem LLC, priority 2011, dated 2015)
Where “and” joins values, the source holds several entries; their conditions need not be identical. Equal values may be shown once.

Tests used:
[1] = Briggs-Rauscher Oscillation Reaction Method (BROM) antioxidant capacity; type: biochemical; settings: for calculated BROM value at product concentration: Arbutin at 0.2 wt. %, BHT at 0.1 wt. %; for BROM value of individual antioxidant: text b80, rounded values used for calculation; for BROM: Table 2, common antioxidants present in body fluids and tissues
[2] = system: Balb/c 3T3 cells; test: 3T3 Neutral Red Uptake Phototoxicity Test (3T3 NRU PT); type: cell-based, murine; settings: positive control, dose dates 03/10/11, 03/15/11, 03/22/11
Text: The 3T3 Neutral Red Phototoxicity Test (3T3 NRU PT) was used to assess toxicological performance. It is a relatively new assay that was adopted by regulatory agencies such as OECD and FDA as an accepted method for the assessment of phototoxic potential of test substances. It is an in-vitro toxicological assessment test used to determine cytotoxic and photo(cyto)toxicity effect of a test article to murine fibroblasts in the presence or absence of UVA light (99% UVA/1% UVB). The 3T3 Neutral Red Uptake Phototoxicity Assay (3T3 NRU PT) can be utilized to identify the phototoxic effect of a test substance induced by the combination of test substance and light and is based on the comparison of the cytotoxic effect of a test substance when tested after the exposure and in the absence of exposure to a non-cytotoxic dose of UVA/vis light. Cytotoxicity is expressed as a concentration dependent reduction of the uptake of the vital dye—Neutral Red. […]
For both the range finding screen and the definitive test, Balb/c 3T3 cells were seeded in the central 60 wells of duplicate 96-well microplates per test article and maintained in culture for 24 hours. […] After UV irradiation, the treatment medium was replaced with culture medium and after 24 hours, cell viability was determined by neutral red uptake for 3 hours. […]

[3] = Table 2, Water or Lipid; cited from earlier work

OC[C@H]1O[C@@H](Oc2ccc(O)cc2)[C@H](O)[C@@H](O)[C@@H]1O (racemic) [Arbutin Racemic mixture, Arbutin]
Result [s/μg] (BROM by Strength) ([1]; Table 3, solvent 50% Ethanol): 47 s/µg
Result [s/μg] (BROM by Strength) ([1]; Table 3, solvent Water): 49.4 s/µg

OC[C@H]1O[C@@H](Oc2ccc(O)cc2)[C@H](O)[C@@H](O)[C@@H]1O [8 Arbutin]
Result [s/μg] (BROM by Strength) ([1]; Table 3, solvent Water): 40.53 s/µg

NC(=O)NC1NC(=O)NC1=O (centres unmarked) [Allantoin]
Result [s/μg] (BROM by Strength) ([1]; Table 3, solvent Water): 0 s/µg

OC[C@H]1O[C@@H](Oc2ccc(O)cc2)[C@H](O)[C@@H](O)[C@@H]1O [Arbutin]
calculated BROM value at product concentration [1]: 0.1
BROM value of individual antioxidant [1]: 50 s/µg

O=C1O[C@H]([C@@H](O)CO)C(O)=C1O [Ascorbic Acid, Ascorbic acid]
BROM value [1]: 0.00105 s/µg
electron scavenging capacity (BROM) [1]: do not show measurable electron scavenging capacity
BROM [1]: 0.00105 s/µg
Result [s/μg] (BROM by Strength) ([1]; Table 3, solvent Water): 0.00105 s/µg

O=C1O[C@H]([C@@H](O)CO)C(O)=C1O[C@H]1O[C@H](CO)[C@@H](O)[C@H](O)[C@H]1O [Ascorbyl Glucoside]
Result [s/μg] (BROM by Strength) ([1]; Table 3, solvent Water): No clear

CC(C)c1c(C(=O)Nc2ccccc2)c(-c2ccccc2)c(-c2ccc(F)cc2)n1CC[C@@H](O)C[C@@H](O)CC(=O)O [Atorvastatin (Lipitor), Atorvastatin]
Result [s/μg] (BROM by Strength) ([1]; Table 3, solvent Ethanol): 8.41 s/µg

Cc1cc(C(C)(C)C)c(O)c(C(C)(C)C)c1 [BHT, butylatedhydroxytoluene]
calculated BROM value at product concentration [1]: 0.03
Result [s/μg] (BROM by Strength) ([1]; Table 3, solvent 50% Ethanol): 34.53 s/µg
Result [s/μg] (BROM by Strength) ([1]; Table 3, solvent Ethanol): 29.4 s/µg
BROM value of individual antioxidant [1]: 30 s/µg

CN(C)CCCN1c2ccccc2Sc2ccc(Cl)cc21 [CPZ, Chloropromazine]
EC50 +SSL ([2]; +SSL): 0.394 µg/mL and 0.725 µg/mL and 0.682 µg/mL
EC50 No SSL ([2]; dark): 19.592 µg/mL and 24.805 µg/mL and 26.457 µg/mL

O=C[C@H](O)[C@@H](O)[C@H](O)[C@H](O)CO [D-Glucose]
Result [s/μg] (BROM by Strength) ([1]; Table 3, solvent Water): 0 s/µg

N[C@@H](CCC(=O)N[C@@H](CS)C(=O)NCC(=O)O)C(=O)O [Glutathione]
Solubility [3]: Water
BROM [1]: 0.000991 s/µg
Result [s/μg] (BROM by Strength) ([1]; Table 3, solvent Water): 0.000991 s/µg

COc1ccc([C@@H]2CC(=O)c3c(O)cc(O[C@@H]4O[C@H](CO[C@@H]5O[C@@H](C)[C@H](O)[C@@H](O)[C@H]5O)[C@@H](O)[C@H](O)[C@H]4O)cc3O2)cc1O [Hesperidin]
Result [s/μg] (BROM by Strength) ([1]; Table 3, solvent Water): 5.38 s/µg

Oc1ccc(O)cc1 [Hydroquinone]
Result [s/μg] (BROM by Strength) ([1]; Table 3, solvent 50% Ethanol): 1.1 s/µg
Result [s/μg] (BROM by Strength) ([1]; Table 3, solvent Water): 1.31 s/µg

COc1ccc(C(=O)c2ccccc2)c(O)c1 [Oxybenzone]
Result [s/μg] (BROM by Strength) ([1]; Table 3, solvent Ethanol): 0 s/µg

Oc1cccc(O)c1 [Resorcinol]
Result [s/μg] (BROM by Strength) ([1]; Table 3, solvent Water): 30.39 s/µg

CCCCC(CC)COC(=O)C(C#N)=C(c1ccccc1)c1ccc(OC)cc1 (centres unmarked) [Solastay S1]
Result [s/μg] (BROM by Strength) ([1]; Table 3, solvent Ethanol): 0 s/µg

CC(C)(C)c1cc(O)ccc1O [Tert-Butylhydroquinone]
Result [s/μg] (BROM by Strength) ([1]; Table 3, solvent Ethanol): 0.13 s/µg

CC1=C(/C=C/C(C)=C/C=C/C(C)=C/C(=O)O)C(C)(C)CCC1 [Tretinoin]
BROM [1]: 0 s/µg
Result [s/μg] (BROM by Strength) ([1]; Table 3, solvent Ethanol): 0 s/µg

Cc1c(C)c2c(c(C)c1O)CCC(C)(C(=O)O)O2 (centres unmarked) [Trolox]
electron scavenging capacity (BROM) [1]: do not show measurable electron scavenging capacity
Result [s/μg] (BROM by Strength) ([1]; Table 3, solvent Ethanol): 0.021 s/µg

COc1c(O)c(C)c(C/C=C(\C)CC/C=C(\C)CC/C=C(\C)CC/C=C(\C)CC/C=C(\C)CC/C=C(\C)CC/C=C(\C)CC/C=C(\C)CC/C=C(\C)CCC=C(C)C)c(O)c1OC [Ubiquinol (coenzyme Q10), Ubiquinol]
Solubility [3]: Lipid
BROM [1]: 0 s/µg

O=c1[nH]c(=O)c2[nH]c(=O)[nH]c2[nH]1 [Uric Acid, Uric acid]
Solubility [3]: Water
BROM [1]: 9.14 s/µg
Result [s/μg] (BROM by Strength) ([1]; Table 3, solvent Water): 9.14 s/µg

CC(=O)Oc1c(C)c(C)c2c(c1C)CCC(C)(CCC[C@H](C)CCC[C@H](C)CCCC(C)C)O2 (some centres unmarked) [Vitamin E Acetate]
electron scavenging capacity (BROM) [1]: do not show measurable electron scavenging capacity
Result [s/μg] (BROM by Strength) ([1]; Table 3, solvent Ethanol): 0 s/µg

Cc1c(C)c2c(c(C)c1O)CC[C@@](C)(CCC[C@H](C)CCC[C@H](C)CCCC(C)C)O2 [α-Tocopherol (vitamin E), α-Tocopherol]
Solubility [3]: Lipid
BROM value [1]: 0 s/µg
BROM [1]: 0 s/µg

Carotenes
Solubility [3]: Lipid
